In the assay the target is T1, human Keap1 Kelch domain (Homo sapiens, UniProt Q14145).
T1 construct: human Keap1 Kelch domain (residue 321-609, UniProt Q14145); made in house; host or cells: Escherichia coli BL21 (DE3) pLysS, pRSET A vector
The experiment in a line: Fluorescence polarization (FP) competition assay, Cy5-Nrf2 peptide probe. The note with it: heterologous competition FP; Keap1 Kelch 14 nM, Cy5-Nrf2 probe 3 nM, 4% DMSO; mean ± SEM. Type of assay: binding. The protocol:
The binding affinities between the fluorescent peptide probe Cy5-Nrf2 (SEQ: Cy5-[…]-NH2) and the human Keap1 Kelch domain were determined as Kd values by saturation binding experiments, where increasing concentrations of Keap1 (0-300 nM) were added to a fixed concentration of peptide probe (3 nM). The assay was performed in a 1× HBSTET buffer (10 mM HEPES, 150 mM NaCl, 0.005% Tween20, 3 mM ethylenediaminetetraacetic acid (EDTA), 1 mM TCEP, pH=7.4) using black flat-bottom 384-well plates (Corning Life Sciences, NY), a volume of 30 μL/well, and a final DMSO concentration of 4% or 8%. The assay plate was spun down to ascertain proper mixing and removal of potential air bubbles and incubated for 10-15 min at room temperature before measuring the FP levels on a Safire2 plate reader (Tecan, Mannedorf, Switzerland). The g-factor was adjusted at each experiment so that a series of three blank wells containing probe but no Keap1 Kelch defined the baseline FP value. The Cy5-Nrf2 probe was measured at excitation/emission values of 635:670 nm. The FP values were fitted to the one-site specific binding equation: Y=Bmax×X/(Kd+X), with Bmax being the maximal FP value, X the Keap1 Kelch concentration, and Y the variable FP values. The Kd values were derived from the resulting binding saturation curve as being equal to the Keap1 Kelch concentration, where the curve is half-saturated.
The affinities between nonfluorescent small molecule Keap1 inhibitors and Keap1 Kelch were determined as Ki values in a heterologous competition FP binding assay. This was done by adding increasing concentration of test compound (2-fold serial dilutions, 12 concentrations tested per inhibition curve as duplicates) to a fixed concentration of Keap1 Kelch (14 nM) and the Cy5-Nrf2 peptide probe (3 nM) in the same HBSTET buffer and conditions as described above (final DMSO concentrations were 4%). FP values were fitted to the equation Y=Bottom+(Top−Bottom)/[1+(10^HillSlope×(log IC50−X))], where X is the logarithmic value of compound concentration. Hereby, the IC50 value was obtained, which together with the […] value and probe and Keap1 Kelch concentrations was used to calculate the theoretical competitive inhibition constant, the Ki value. 43 Ki values are shown as mean±SEM (standard error of mean) if based on two or more individual measurements.

What is called Ki is a dissociation constant, usually derived from enzyme kinetics or from competition with a known ligand.

Molecules are shown by their SMILES.

T1 sequence (Q14145 321-609): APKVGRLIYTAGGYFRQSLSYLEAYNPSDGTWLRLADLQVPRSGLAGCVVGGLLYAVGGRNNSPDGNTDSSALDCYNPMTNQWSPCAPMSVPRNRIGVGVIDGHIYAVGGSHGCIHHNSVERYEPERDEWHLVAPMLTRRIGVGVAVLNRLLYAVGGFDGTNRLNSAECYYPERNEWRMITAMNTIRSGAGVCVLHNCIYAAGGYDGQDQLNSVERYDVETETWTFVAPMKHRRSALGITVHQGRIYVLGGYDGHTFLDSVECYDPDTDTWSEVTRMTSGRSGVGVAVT

For the compound `O=C(O)CC(c1ccc2c(c1)OCO2)c1ccc2ccc(OCC(=O)N[C@@H]3C[C@@H]4CC[C@H]3C4)cc2c1` (stereo partly drawn) [6h, 3-(benzo[d][1,3]dioxol-5-yl)-3-(7-(2-(((1S,2R,4R)-bicyclo[2.2.1]heptan-2-yl)amino)-2-oxoethoxy)naphthalen-2-yl)propanoic acid], the Ki was found to be 0.019 ± 0.003 µM.
Then `CN(C(=O)COc1ccc2ccc(C(CC(=O)O)c3ccc4c(c3)OCO4)cc2c1)C1CCCCCC1` (stereo not shown) [7b, 3-(benzo[d][1,3]dioxol-5-yl)-3-(7-(2-(cycloheptyl(methyl)amino)-2-oxoethoxy)naphthalen-2-yl)propanoic acid], with 0.129 ± 0.009 µM; and `Cc1cc2c(cc1C(CC(=O)O)c1ccc3ccc(OCC(=O)NC4CCCCCC4)cc3c1)OCCO2` (stereo not shown) [2u, 3-(7-(2-(Cycloheptylamino)-2-oxoethoxy)naphthalen-2-yl)-3-(7-methyl-2,3-dihydrobenzo[b][1,4]dioxin-6-yl)propanoic acid], with 0.009 ± 0.003 µM; and `O=C(O)CC(c1cccc(O)c1)c1ccc2ccc(OCC(=O)NC3CCCCCC3)cc2c1` (stereo not shown) [2g, 3-(7-(2-(Cycloheptylamino)-2-oxoethoxy)naphthalen-2-yl)-3-(3-hydroxyphenyl)propanoic acid], with 0.203 ± 0.03 µM.
Then `CC(C)(C(=O)O)C(c1ccc2c(c1)OCO2)c1ccc2ccc(OCC(=O)NC3CCCCCC3)cc2c1` (stereo not shown) [7d, 3-(benzo[d][1,3]dioxol-5-yl)-3-(7-(2-(cycloheptylamino)-2-oxoethoxy)naphthalen-2-yl)-2,2-dimethylpropanoic acid], with 0.003 ± 0.001 µM; and `Cc1cc2c(cc1C(CC(=O)O)c1ccc3ccc(OCC(=O)N[C@H]4C[C@@H]5CC[C@H]4C5)cc3c1)OCO2` (stereo partly drawn) [5c, 3-(7-(2-(((1S,2S,4R)-bicyclo[2.2.1]heptan-2-yl)amino)-2-oxoethoxy)naphthalen-2-yl)-3-(6-methylbenzo[d][1,3]dioxol-5-yl)propanoic acid], with 0.007 µM.
As for `Cc1cc2c(cc1C(CC(=O)O)c1ccc3ccc(OCC(=O)N[C@H]4C[C@@H]5CC[C@H]4C5)cc3c1)OCCO2` (stereo partly drawn) [5d, 3-(7-(2-(((1S,2S,4R)-bicyclo[2.2.1]heptan-2-yl)amino)-2-oxoethoxy)naphthalen-2-yl)-3-(7-methyl-2,3-dihydrobenzo[b][1,4]dioxin-6-yl)propanoic acid], the figure is around 0.001 µM; as for `O=C(O)CC(c1ccc2c(c1)OCO2)c1ccc2ccc(OCC(=O)NC3C=CCCC3)cc2c1` (stereo not shown) [4a, 3-(Benzo[d][1,3]dioxol-5-yl)-3-(7-(2-(cyclohex-2-en-1-ylamino)-2-oxoethoxy)naphthalen-2-yl)propanoic acid], 0.025 ± 0.002 µM.
With `O=C(O)CC(c1ccc2c(c1)OCO2)c1ccc2ccc(OCC(=O)NC3CCCCC3)cc2c1` (stereo not shown) [3f, 3-(benzo[d][1,3]dioxol-5-yl)-3-(7-(2-(cyclohexylamino)-2-oxoethoxy)naphthalen-2-yl)propanoic acid], the Ki was 0.059 ± 0.006 µM.
Regarding `Cc1ccc(Cl)cc1C(CC(=O)O)c1ccc2ccc(OCC(=O)NC3C=CCCC3)cc2c1` (stereo not shown) [4h, 3-(5-Chloro-2-methylphenyl)-3-(7-(2-(cyclohex-2-en-1-ylamino)-2-oxoethoxy)naphthalen-2-yl)propanoic acid], the Ki was 0.048 ± 0.005 µM.
As for `Cc1ccc(Cl)cc1C(CC(=O)O)c1ccc2ccc(OCC(=O)NC3CCCCCC3)cc2c1` (stereo not shown) [2v, 3-(5-chloro-2-methylphenyl)-3-(7-(2-(cycloheptylamino)-2-oxoethoxy)naphthalen-2-yl)propanoic acid], the figure is 0.097 ± 0.013 µM; as for `COc1ccc(NC(=O)COc2ccc3ccc(CCC(=O)O)cc3c2)cc1` [1e, 3-(7-(2-((4-Methoxyphenyl)amino)-2-oxoethoxy)naphthalen-2-yl)propanoic acid], 75 ± 10 µM; as for `Cc1cc2c(cc1C(CC(=O)O)c1ccc3ccc(OCC(=O)NC4CCCCC4)cc3c1)OCCO2` (stereo not shown) [3q, 3-(7-(2-(cyclohexylamino)-2-oxoethoxy)naphthalen-2-yl)-3-(7-methyl-2,3-dihydrobenzo[b][1,4]dioxin-6-yl)propanoic acid], 0.015 ± 0.001 µM.
As for `Cc1cc2c(cc1C(CC(=O)O)c1ccc3ccc(OCC(=O)NC4C=CCCC4)cc3c1)OCCO2` (stereo not shown) [4i, 3-(7-(2-(cyclohex-2-en-1-ylamino)-2-oxoethoxy)naphthalen-2-yl)-3-(7-methyl-2,3-dihydrobenzo[b][1,4]dioxin-6-yl)propanoic acid], the figure is 0.017 ± 0.003 µM; as for `CC(C)Oc1ccc(C(CC(=O)O)c2ccc3ccc(OCC(=O)NC4CCCCCC4)cc3c2)cc1` (stereo not shown) [2f, 3-(7-(2-(Cycloheptylamino)-2-oxoethoxy)naphthalen-2-yl)-3-(4-isopropoxyphenyl)propanoic acid], 0.101 ± 0.005 µM; as for `CCn1nnc2c(C)c(C(CC(=O)O)c3ccc4ccc(OCC(=O)NC5CCCCC5)cc4c3)ccc21` (stereo not shown) [3h, 3-(7-(2-(cyclohexylamino)-2-oxoethoxy)naphthalen-2-yl)-3-(1-ethyl-4-methyl-1H-benzo[d][1,2,3]triazol-5-yl)propanoic acid], 0.0048 ± 0.001 µM.
As for `O=C(O)CC(c1ccc2c(c1)OCO2)c1ccc2ccc(OCC(=O)N[C@H]3C[C@@H]4CC[C@H]3C4)cc2c1` (stereo partly drawn) [5a, 3-(benzo[d][1,3]dioxol-5-yl)-3-(7-(2-(((1S,2S,4R)-bicyclo[2.2.1]heptan-2-yl)amino)-2-oxoethoxy)naphthalen-2-yl)propanoic acid], the figure is 0.02 ± 0.003 µM; as for `CC1(C)CCC(NC(=O)COc2ccc3ccc(C(CC(=O)O)c4ccc5c(c4)OCO5)cc3c2)CC1` (stereo not shown) [6g, 3-(benzo[d][1,3]dioxol-5-yl)-3-(7-(2-((4,4-dimethylcyclohexyl)amino)-2-oxoethoxy)naphthalen-2-yl)propanoic acid], 0.056 ± 0.007 µM; as for `O=C(O)CC(c1ccc2c(c1)OCO2)c1ccc2ccc(OCC(=O)NC3CCCCCC3)nc2c1` (stereo not shown) [9b, 3-(benzo[d][1,3]dioxol-5-yl)-3-(2-(2-(cycloheptylamino)-2-oxoethoxy)quinolin-7-yl)propanoic acid], 0.083 ± 0.037 µM.
As for `O=C(O)CC(c1ccccc1)c1ccc2ccc(OCC(=O)NC3CCCCCC3)cc2c1` (stereo not shown) [2a, 3-(7-(2-(Cycloheptylamino)-2-oxoethoxy)naphthalen-2-yl)-3-phenylpropanoic acid], the Ki came to 1.1 ± 0.1 µM.
As for `Cc1cc2c(cc1C(CC(=O)O)c1ccc3ccc(OCC(=O)NC4CCCCCC4)cc3c1)OC(F)(F)O2` (stereo not shown) [2w, 3-(7-(2-(cycloheptylamino)-2-oxoethoxy)naphthalen-2-yl)-3-(2,2-difluoro-6-methylbenzo[d][1,3]dioxol-5-yl)propanoic acid], the figure is 0.014 ± 0.002 µM.
Turning to `O=C(O)CC(c1ccc2c(c1)OCO2)c1ccc2ccc(OCC(=O)Nc3ccccc3)cc2c1` (stereo not shown) [6l, 3-(benzo[d][1,3]dioxol-5-yl)-3-(7-(2-oxo-2-(phenylamino)ethoxy)naphthalen-2-yl)propanoic acid], the Ki was 1.88 µM.
For `COc1ccc(C(CC(=O)O)c2ccc3ccc(OCC(=O)NC4CCCCCC4)cc3c2)c(C)c1` (stereo not shown) [2k, 3-(7-(2-(Cycloheptylamino)-2-oxoethoxy)naphthalen-2-yl)-3-(4-methoxy-2-methylphenyl)propanoic acid], the Ki was 0.027 ± 0.003 µM.
In the case of `O=C(O)CC(c1ccc2c(c1)OCO2)c1ccc2ccc(OCC(=O)NC3CCCCCC3)cc2c1` (stereo not shown) [2m, 3-(benzo[d][1,3]dioxol-5-yl)-3-(7-(2-(cycloheptylamino)-2-oxoethoxy)naphthalen-2-yl)propanoic acid], the Ki is 0.023 ± 0.002 µM.
For the compound `O=C(O)CC(c1ccc2ccc(OCC(=O)NC3CCCCCC3)cc2c1)c1ccc2occc2c1` (stereo not shown) [2t, 3-(Benzofuran-5-yl)-3-(7-(2-(cycloheptylamino)-2-oxoethoxy)naphthalen-2-yl)propanoic acid], the inhibitory constant (Ki) was 0.038 ± 0.002 µM.
For `O=C(O)CC(c1ccc2c(c1)OCO2)c1ccc2ccc(OCC(=O)NC3CC=CCC3)cc2c1` (stereo not shown) [6a, 3-(Benzo[d][1,3]dioxol-5-yl)-3-(7-(2-(cyclohex-3-en-1-ylamino)-2-oxoethoxy)naphthalen-2-yl)propanoic acid], the inhibition constant Ki was 0.076 ± 0.009 µM.
As for `Cc1cc2occc2cc1C(CC(=O)O)c1ccc2ccc(OCC(=O)NC3CCCCC3)cc2c1` (stereo not shown) [3s, 3-(7-(2-(cyclohexylamino)-2-oxoethoxy)naphthalen-2-yl)-3-(6-methylbenzofuran-5-yl)propanoic acid], the inhibition constant Ki was 0.024 ± 0.001 µM.
Then `O=C(O)CC(c1ccc2c(c1)OCCO2)c1ccc2ccc(OCC(=O)NC3C=CCCC3)cc2c1` (stereo not shown) [4d, 3-(7-(2-(cyclohex-2-en-1-ylamino)-2-oxoethoxy)naphthalen-2-yl)-3-(2,3-dihydrobenzo[b][1,4]dioxin-6-yl)propanoic acid], with 0.02 ± 0.002 µM.

Values taken from US20260193170A1 (University of Copenhagen, priority 2022, published 2026).
